Experiment [1] has as its target T1, baculovirus-expressed ALK (Homo sapiens, UniProt Q9UM73).
T1 construct: host or cells: baculovirus expression system
Nature of the experiment: ALK Kinase Assay (ELISA-type, time-resolved fluorescence). Format: biochemical. The essentials:
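Plates coated with phospholipase C-γ substrate (10 μg/mL in TBS); reaction started with 30 ng/ml ALK and run 15 min at 37° C. Phosphorylated substrate detected with Eu-N1-labeled PT66 antibody. IC50 from sigmoidal variable-slope fit of percent inhibition vs log concentration.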
For orientation: An ELISA detects its analyte on a solid surface through an enzyme-linked reagent.

The target in experiment [2] is T2, c-Met (cytoplasmic domain) (Homo sapiens, UniProt P08581).
T2 construct: 10 ng/mL c-Met (cytoplasmic domain, Invitrogen Corporation #PV3143); purchased Invitrogen Corporation PV3143
T2 sequence (P08581 956-1390 limits assumed): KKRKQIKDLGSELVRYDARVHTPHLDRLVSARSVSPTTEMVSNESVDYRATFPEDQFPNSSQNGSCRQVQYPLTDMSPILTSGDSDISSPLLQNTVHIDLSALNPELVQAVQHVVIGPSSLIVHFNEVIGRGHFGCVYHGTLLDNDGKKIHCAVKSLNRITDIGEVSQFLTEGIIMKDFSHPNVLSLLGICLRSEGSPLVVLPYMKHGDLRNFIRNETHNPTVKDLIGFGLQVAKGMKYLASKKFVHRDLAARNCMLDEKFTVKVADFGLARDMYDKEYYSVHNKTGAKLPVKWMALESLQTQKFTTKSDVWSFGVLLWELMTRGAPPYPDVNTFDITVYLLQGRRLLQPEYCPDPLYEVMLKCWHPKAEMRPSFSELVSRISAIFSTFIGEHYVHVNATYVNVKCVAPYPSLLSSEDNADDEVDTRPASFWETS
Nature of the experiment: c-Met Kinase Assay (same methods as for ALK, with modifications). Format: biochemical. The essentials:
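Europium-labeled PT66 antibody (Eu-N1) detects substrate phosphorylation on wells coated with phospholipase C-γ at 10 μg/mL. The kinase, the cytoplasmic domain of c-Met at 10 ng/mL, starts the reaction, which proceeds 15 minutes at 37° C.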

Setting [3] is: 1 μM ATP (Km level), read-out: ALK Activity (ALK Kinase Inhibition, IC50).
[4] abbreviates: 1 μM ATP (Km level), read-out: cMet Activity (c-Met Kinase Inhibition, IC50).
The mark [5] stands for this setting: ALK kinase inhibition, 1 μM ATP (Km level), read-out: ALK Activity.
Where [6] appears, read: c-Met kinase inhibition, 1 μM ATP (Km level), read-out: cMet Activity.
Setting [7] is: 1 μM ATP (Km level), 30 ng/ml ALK, 37° C., 15 minutes, read-out: ALK Activity (ALK kinase inhibition, IC50 class).
Setting [8] is: 1 μM ATP (Km level), 10 ng/mL c-Met, read-out: cMet Activity (c-Met kinase inhibition, IC50 class).
Setting [9] is: ALK kinase inhibition, 1 μM ATP, read-out: ALK Activity.
The mark [10] stands for this setting: c-Met kinase inhibition, 1 μM ATP, read-out: cMet Activity.

Where two headings read alike, the source gives them in different places.

T1 sequence (Q9UM73 19-1620): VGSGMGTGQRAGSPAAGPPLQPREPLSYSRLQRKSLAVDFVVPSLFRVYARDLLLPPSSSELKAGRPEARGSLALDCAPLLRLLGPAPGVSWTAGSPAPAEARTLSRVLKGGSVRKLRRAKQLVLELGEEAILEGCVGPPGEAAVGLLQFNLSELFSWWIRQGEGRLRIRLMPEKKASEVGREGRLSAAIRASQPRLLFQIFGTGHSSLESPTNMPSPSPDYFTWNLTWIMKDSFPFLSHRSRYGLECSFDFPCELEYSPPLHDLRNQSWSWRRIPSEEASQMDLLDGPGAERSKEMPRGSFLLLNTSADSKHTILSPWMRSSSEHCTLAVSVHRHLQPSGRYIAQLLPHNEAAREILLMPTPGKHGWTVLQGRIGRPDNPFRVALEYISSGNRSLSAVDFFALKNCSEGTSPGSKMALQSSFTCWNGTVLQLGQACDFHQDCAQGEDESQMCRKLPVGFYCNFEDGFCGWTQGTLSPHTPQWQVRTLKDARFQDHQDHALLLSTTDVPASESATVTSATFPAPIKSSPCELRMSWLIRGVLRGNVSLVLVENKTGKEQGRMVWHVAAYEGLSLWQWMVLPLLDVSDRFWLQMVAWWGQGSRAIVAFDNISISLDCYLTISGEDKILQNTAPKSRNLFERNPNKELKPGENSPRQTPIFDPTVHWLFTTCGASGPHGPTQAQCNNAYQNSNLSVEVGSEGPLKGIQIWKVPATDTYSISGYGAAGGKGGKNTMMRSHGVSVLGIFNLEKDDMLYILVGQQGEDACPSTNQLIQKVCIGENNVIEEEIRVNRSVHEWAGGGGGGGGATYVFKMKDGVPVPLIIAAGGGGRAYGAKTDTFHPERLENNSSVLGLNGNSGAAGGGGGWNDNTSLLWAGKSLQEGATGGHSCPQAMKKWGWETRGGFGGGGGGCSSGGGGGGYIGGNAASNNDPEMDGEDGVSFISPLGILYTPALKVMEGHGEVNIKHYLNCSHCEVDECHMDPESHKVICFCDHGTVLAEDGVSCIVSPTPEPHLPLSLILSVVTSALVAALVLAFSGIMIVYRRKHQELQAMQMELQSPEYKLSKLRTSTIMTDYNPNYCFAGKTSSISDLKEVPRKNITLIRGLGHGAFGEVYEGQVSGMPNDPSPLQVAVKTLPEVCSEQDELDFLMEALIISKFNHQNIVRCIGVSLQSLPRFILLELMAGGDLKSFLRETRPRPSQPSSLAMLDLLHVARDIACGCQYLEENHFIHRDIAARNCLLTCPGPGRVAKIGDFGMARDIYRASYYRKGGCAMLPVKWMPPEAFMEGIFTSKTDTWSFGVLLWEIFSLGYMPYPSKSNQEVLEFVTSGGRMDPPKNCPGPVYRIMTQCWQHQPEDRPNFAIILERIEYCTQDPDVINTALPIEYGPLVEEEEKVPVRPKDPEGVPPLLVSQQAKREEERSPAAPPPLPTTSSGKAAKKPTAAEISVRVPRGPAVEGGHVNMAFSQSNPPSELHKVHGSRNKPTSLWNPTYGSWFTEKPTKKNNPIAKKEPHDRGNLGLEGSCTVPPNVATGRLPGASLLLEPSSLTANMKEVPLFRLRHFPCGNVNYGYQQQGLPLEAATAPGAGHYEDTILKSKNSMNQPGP

On to `COc1ccc(Nc2nc(Nc3ccc4c(c3)C(C)(C)CCC(=O)N4)ncc2Cl)c(-n2cccn2)c1` [Example 611, 7-[5-Chloro-4-(4-methoxy-2-pyrazol-1-yl-phenylamino)-pyrimidin-2-ylamino]-5,5-dimethyl-1,3,4,5-tetrahydro-benzo[b]azepin-2-one], for which the IC50 in experiment [1] (setting [3]) was under 100 nM; in experiment [2] (setting [4]) it was 1000 to 10000 nM.
On to `COc1cc2c(cc1Nc1ncc(Cl)c(NC3C4C=CC(C4)C3C(N)=O)n1)CCN(CC(=O)N(C)C)CC2` (stereo not drawn) [Example 260, (2-exo,3-exo)-3-[5-Chloro-2-(3-dimethylcarbamoylmethyl-8-methoxy-2,3,4,5-tetrahydro-1H-benzo[d]azepin-7-ylamino)-pyrimidin-4-ylamino]-bicyclo[2.2.1]hept-5-ene-2-carboxylic acid amide], for which the IC50 in experiment [1] (setting [5]) was under 100 nM; in experiment [2] (setting [6]), over 10000 nM.
As for `CC(C)S(=O)(=O)c1cccc(F)c1Nc1nc(Nc2ccc3c(c2)NC(=O)CCC3(C)C)ncc1Cl` [Example 1251, 8-{5-Chloro-4-[2-fluoro-6-(propane-2-sulfonyl)-phenylamino]-2-ylamino}-5,5-dimethyl-1,3,4,5-tetrahydro-1-benzazepin-2-one], the IC50 in experiment [1] (setting [7]) lay within 100 to 1000 nM; in experiment [2] (setting [8]), 1000 to 10000 nM.
As to `C#CCNC(=O)c1cccc(F)c1Nc1nc(Nc2ccc3c(c2)CCN(C(=O)C2COCCO2)CC3)ncc1Cl` (centres unmarked) [Example 640, 2-{5-Chloro-2-[3-([1,4]dioxane-2-carbonyl)-2,3,4,5-tetrahydro-1H-benzo[d]azepin-7-ylamino]-pyrimidin-4-ylamino}-3-fluoro-N-prop-2-ynyl-benzamide], the values for the IC50 in experiment [1] (setting [3]) and in experiment [2] (setting [4]) were 100 to 1000 nM and under 100 nM, respectively.
Take `CCN1CCCC(C)(C)c2ccc(Nc3ncc(Cl)c(N[C@H]4[C@@H](C(N)=O)[C@@H]5C=C[C@H]4C5)n3)cc21` [Example 1634, (1S,2S,3R,4R)-3-[5-Chloro-2-(1-ethyl-5,5-dimethyl-2,3,4,5-tetrahydro-1H-benzo[b]azepin-8-ylamino)-pyrimidin-4-ylamino]-bicyclo[2.2.1]hept-5-ene-2-carboxylic acid amide]: the IC50 was under 100 nM in experiment [1] (setting [9]) and 1000 to 10000 nM in experiment [2] (setting [10]).
In the case of `COc1cc2c(cc1Nc1ncc(Cl)c(Nc3ccc(N4CCOCC4)cc3OC)n1)CCN(CC(=O)OC(C)C)CC2` [Example 800, {7-[5-Chloro-4-(2-methoxy-4-morpholin-4-yl-phenylamino)-pyrimidin-2-ylamino]-8-methoxy-1,2,4,5-tetrahydro-benzo[d]azepin-3-yl}-acetic acid isopropyl ester], the IC50 is under 100 nM in experiment [1] (setting [3]) and over 10000 nM in experiment [2] (setting [4]).
Consider `CCN1CC(=O)Nc2cc(Nc3ncc(Cl)c(Nc4ccc(N5CCOCC5)cc4OC)n3)c(OC)cc2C1` [Example 1661, 8-[5-Chloro-4-(2-methoxy-4-morpholin-4-yl-phenylamino)-pyrimidin-2-ylamino]-4-ethyl-7-methoxy-1,3,4,5-tetrahydro-benzo[e][1,4]diazepin-2-one], for which the IC50 in experiment [1] (setting [9]) was under 100 nM; in experiment [2] (setting [10]), over 10000 nM.
Turning to `CNC(=O)[C@@H]1[C@H](Nc2nc(Nc3ccc4c(c3)C(C)(C)CCC(=O)N4)ncc2Cl)[C@H]2C=C[C@@H]1C2` (relative stereo) [Example 620, (2-exo-3-exo)-3-[5-Chloro-2-(5,5-dimethyl-2-oxo-2,3,4,5-tetrahydro-1H-benzo[b]azepin-7-ylamino)-pyrimidin-4-ylamino]-bicyclo[2.2.1]hept-5-ene-2-carboxylic acid methylamide], the IC50 in experiment [1] (setting [3]) is under 100 nM; in experiment [2] (setting [4]), 100 to 1000 nM.
On to `CCN1CC(=O)Nc2cc(Nc3ncc(Cl)c(Nc4ccccc4S(=O)(=O)N(C)C)n3)c(OC)cc2C1` [Example 1659, 2-[5-Chloro-2-(4-ethyl-7-methoxy-2-oxo-2,3,4,5-tetrahydro-1H-benzo[e][1,4]diazepin-8-ylamino)-pyrimidin-4-ylamino]-N,N-dimethyl-benzenesulfonamide], for which the IC50 in experiment [1] (setting [9]) is under 100 nM; in experiment [2] (setting [10]), over 10000 nM.
For `CCOc1ccccc1Nc1nc(Nc2cc3c(cc2OC)CCN(CC(=O)N(C)C)CC3)ncc1Cl` [Example 1144, 2-{7-[5-Chloro-4-(2-ethoxy-phenylamino)-pyrimidin-2-ylamino]-8-methoxy-1,2,4,5-tetrahydro-benzo[d]azepin-3-yl}-N,N-dimethyl-acetamide], the results for the IC50 in experiment [1] (setting [7]) and in experiment [2] (setting [8]) were under 100 nM and over 10000 nM, respectively.
Turning to `CNC(=O)c1cccc(C)c1Nc1nc(Nc2ccc3c(c2)C(=O)NCCC3)ncc1Cl` [Example 401, 2-[5-Chloro-2-(1-oxo-2,3,4,5-tetrahydro-1H-benzo[c]azepin-8-ylamino)-pyrimidin-4-ylamino]-3,N-dimethyl-benzamide], the IC50 in experiment [1] (setting [5]) is over 10000 nM; in experiment [2] (setting [6]), 100 to 1000 nM.
Take `CN1C(=O)CCC(C)(C)c2cc(Nc3ncc(Cl)c(N[C@H]4[C@@H](C(N)=O)[C@@H]5C=C[C@H]4C5)n3)ccc21` [Example 1571, (1S,2S,3R,4R)-3-[5-Chloro-2-(1,5,5-trimethyl-2-oxo-2,3,4,5-tetrahydro-1H-benzo[b]azepin-7-ylamino)-pyrimidin-4-ylamino]-bicyclo[2.2.1]hept-5-ene-2-carboxylic acid amide]: the IC50 in experiment [1] (setting [9]) is under 100 nM; in experiment [2] (setting [10]) it was 100 to 1000 nM.
As to `CCOC(=O)N1C2CCC1c1cc(C(=O)OC)cc(Nc3ncc(Cl)c(Nc4ccccc4C(=O)NC)n3)c1C2` (centres unmarked) [Example 78, 6-[5-Chloro-4-(2-methylcarbamoyl-phenylamino)-pyrimidin-2-ylamino]-12-aza-tricyclo[7.2.1.0*2,7*]dodeca-2(7),3,5-triene-4,12-dicarboxylic acid 12-ethyl ester 4-methyl ester], the IC50 in experiment [1] (setting [5]) was under 100 nM; in experiment [2] (setting [6]) it was 100 to 1000 nM.
Turning to `COCCNC(=O)c1ccccc1Nc1nc(Nc2ccc3c(c2)CCN(CCOC)CC3)ncc1Cl` [Example 1398, {5-Chloro-2-[3-(2-methoxy-ethyl)-2,3,4,5-tetrahydro-1H-benzo[d]azepin-7-ylamino]-pyrimidin-4-ylamino}-N-(2-methoxy-ethyl)-benzamide], the IC50 in experiment [1] (setting [7]) was under 100 nM; in experiment [2] (setting [8]), 1000 to 10000 nM.
For `CCN1C2CCC1c1cc(Nc3ncc(Cl)c(Nc4ccccc4NS(C)(=O)=O)n3)ccc1C2` (centres unmarked) [Example 72, N-{2-[5-Chloro-2-(12-ethyl-12-aza-tricyclo[7.2.1.0*2,7*]dodeca-2(7),3,5-trien-4-ylamino)-pyrimidin-4-ylamino]-phenyl}-methanesulfonamide], the IC50 in experiment [1] (setting [5]) is under 100 nM; in experiment [2] (setting [6]), 100 to 1000 nM.
The like results for `COCCN1CCc2cc(Nc3ncc(Cl)c(Nc4ccccc4NS(C)(=O)=O)n3)c(OC)cc2CC1` [Example 242, N-(2-{5-Chloro-2-[8-methoxy-3-(2-methoxy-ethyl)-2,3,4,5-tetrahydro-1H-benzo[d]azepin-7-ylamino]-pyrimidin-4-ylamino}-phenyl)-methanesulfonamide] were, in that order, under 100 nM and 1000 to 10000 nM.
As for `COc1cc2c(cc1Nc1ncc(Cl)c(N[C@@H]3CCCC[C@H]3NS(C)(=O)=O)n1)CCN(CC(F)F)CC2` [Example 762, N-((1R,2R)-2-{5-Chloro-2-[3-(2,2-difluoro-ethyl)-8-methoxy-2,3,4,5-tetrahydro-1H-benzo[d]azepin-7-ylamino]-pyrimidin-4-ylamino}-cyclohexyl)-methanesulfonamide], the IC50 in experiment [1] (setting [3]) was under 100 nM; in experiment [2] (setting [4]), over 10000 nM.
`CCN1C(=O)[C@H](NC(=O)CN(C)C)CCc2c1ccc(Nc1ncc(Cl)c(N[C@H]3[C@@H](C(N)=O)[C@@H]4C=C[C@H]3C4)n1)c2OC` (single isomer, unassigned) [Example 1354]: the IC50 is under 100 nM in experiment [1] (setting [7]) and over 10000 nM in experiment [2] (setting [8]).
As for `CNC(=O)c1cccc(OC(F)(F)F)c1Nc1nc(Nc2ccc3c(c2)CCOC(=O)N3C)ncc1Cl` [Example 1773, 2-[5-Chloro-2-(5-methyl-6-oxo-5,6,8,9-tetrahydro-7-oxa-5-aza-benzocyclohepten-2-ylamino)-pyrimidin-4-ylamino]-N-methyl-3-trifluoromethoxy-benzamide], the IC50 was over 10000 nM in experiment [1] (setting [9]) and 100 to 1000 nM in experiment [2] (setting [10]).
Consider `CNC(=O)c1cccc(F)c1Nc1nc(Nc2ccc3c(c2)NCC(NCCOC)CC3(C)C)ncc1Cl` (centres unmarked) [Example 1294, 2-{5-Chloro-2-[3-(2-methoxy-ethylamino)-5,5-dimethyl-2,3,4,5-tetrahydro-1H-1-benzazepin-8-ylamino]-pyrimidin-4-ylamino}-3-fluoro-N-methyl-benzamide], for which the IC50 in experiment [1] (setting [7]) and in experiment [2] (setting [8]) was under 100 nM each time.
With `C#CCNC(=O)c1ccccc1Nc1nc(Nc2ccc3c(c2)CCN(CCOC)CC3)ncc1Cl` [Example 1387, 2-{5-Chloro-2-[3-(2-methoxy-ethyl)-2,3,4,5-tetrahydro-1H-benzo[d]azepin-7-ylamino]-pyrimidin-4-ylamino}-N-prop-2-ynyl-benzamide], the IC50 in experiment [1] (setting [7]) and in experiment [2] (setting [8]) was under 100 nM throughout.
On to `CCN1C(=O)CCCc2c1ccc(Nc1ncc(Cl)c(NC3C4C=CC(C4)C3C(=O)N(C)C)n1)c2OC` (stereo not drawn) [Example 602, (2-exo-3-exo)-3-[5-Chloro-2-(1-ethyl-6-methoxy-2-oxo-2,3,4,5-tetrahydro-1H-benzo[b]azepin-7-ylamino)-pyrimidin-4-ylamino]-bicyclo[2.2.1]hept-5-ene-2-carboxylic acid dimethylamide], for which the IC50 is 100 to 1000 nM in experiment [1] (setting [3]) and over 10000 nM in experiment [2] (setting [4]).

The values are drawn from patent US8148391B2 (Cephalon, Inc., priority 2006, dated 2012).
